# Tests used:
# [1] = test system: K562; experiment: Potency index, ratio of SAHA IC50 to test compound IC50 for antiproliferative activity against human K562 cell; assay type: functional
# [2] = test system: U-937; experiment: Induction of cell cycle arrest in human U-937 cells assessed as accumulation of cells in pre-G1 phase at 1 uM for 48 hrs by PI staining based flow cytometric analysis; assay type: functional
# [3] = test system: HCT-116; experiment: cells; assay type: functional, cell-based; conditions: Homo sapiens, HCT-116, 72 h
# [4] = test system: K562; experiment: cells; assay type: functional, cell-based; conditions: Homo sapiens, K562, 72 h
# [5] = test system: U-937; experiment: Induction of cell cycle arrest in human U-937 cells assessed as cell death at 5 uM for 48 hrs by PI staining based flow cytometric analysis; assay type: functional
# [6] = test system: U-937; experiment: Induction of cell cycle arrest in human U-937 cells assessed as accumulation of cells in pre-G1 phase at 5 uM for 48 hrs by PI staining based flow cytometric analysis; assay type: functional
# [7] = test system: U-937; experiment: Induction of cell cycle arrest in human U-937 cells assessed as accumulation of cells in G1 phase at 1 to 5 uM for 48 hrs by PI staining based flow cytometric analysis; assay type: functional; conditions: dose 1-5 µM
# [8] = test system: A549; experiment: cells; assay type: functional, cell-based; conditions: Homo sapiens, A549, 72 h
# [9] = test system: U-937; experiment: Induction of cell cycle arrest in human U-937 cells assessed as accumulation of cells in G2/M phase at 1 uM for 24 hrs by PI staining based flow cytometric analysis; assay type: functional
# [10] = test system: U-937; experiment: Induction of cell cycle arrest in human U-937 cells assessed as accumulation of cells in pre-G1 phase at 5 uM for 24 hrs by PI staining based flow cytometric analysis; assay type: functional
# [11] = target: T1, Protein deacetylase HDAC6 (Homo sapiens, UniProt Q9UBN7); conditions: read-out: IC50
# T1 sequence (Q9UBN7 whole entry): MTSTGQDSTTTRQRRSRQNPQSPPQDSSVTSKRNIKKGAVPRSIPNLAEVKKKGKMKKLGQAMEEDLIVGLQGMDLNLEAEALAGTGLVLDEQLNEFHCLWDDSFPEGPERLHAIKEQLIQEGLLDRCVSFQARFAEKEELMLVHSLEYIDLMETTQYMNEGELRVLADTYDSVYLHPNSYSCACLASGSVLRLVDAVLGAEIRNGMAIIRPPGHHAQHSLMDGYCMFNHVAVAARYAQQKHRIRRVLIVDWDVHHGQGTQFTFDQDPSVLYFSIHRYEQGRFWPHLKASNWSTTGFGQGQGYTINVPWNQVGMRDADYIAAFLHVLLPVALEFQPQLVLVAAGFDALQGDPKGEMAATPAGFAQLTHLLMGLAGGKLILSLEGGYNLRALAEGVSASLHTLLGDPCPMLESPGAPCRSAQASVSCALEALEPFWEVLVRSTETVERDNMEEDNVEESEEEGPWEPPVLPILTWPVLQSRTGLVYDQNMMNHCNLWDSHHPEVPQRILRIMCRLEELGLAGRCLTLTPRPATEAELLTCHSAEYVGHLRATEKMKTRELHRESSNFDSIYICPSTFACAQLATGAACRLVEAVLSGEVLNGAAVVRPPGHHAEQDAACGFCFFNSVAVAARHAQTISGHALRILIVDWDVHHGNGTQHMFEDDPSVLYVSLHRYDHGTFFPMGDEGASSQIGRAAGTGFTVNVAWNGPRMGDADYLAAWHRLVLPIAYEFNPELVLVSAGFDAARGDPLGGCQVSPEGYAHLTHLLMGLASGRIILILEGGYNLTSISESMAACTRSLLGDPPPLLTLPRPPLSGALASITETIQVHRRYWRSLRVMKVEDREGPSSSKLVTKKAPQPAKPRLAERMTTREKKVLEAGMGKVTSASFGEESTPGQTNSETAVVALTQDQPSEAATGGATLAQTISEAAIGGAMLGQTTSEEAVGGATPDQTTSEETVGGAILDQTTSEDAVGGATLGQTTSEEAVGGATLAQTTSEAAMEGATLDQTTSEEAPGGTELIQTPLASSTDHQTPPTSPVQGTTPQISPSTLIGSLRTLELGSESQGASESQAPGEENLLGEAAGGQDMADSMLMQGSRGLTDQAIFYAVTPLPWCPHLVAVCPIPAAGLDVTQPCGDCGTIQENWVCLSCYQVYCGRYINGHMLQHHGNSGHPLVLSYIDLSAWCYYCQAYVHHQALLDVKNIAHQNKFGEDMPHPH
# [12] = test system: KARPAS-299; experiment: Antiproliferative activity against human KARPAS-299 cells incubated for 48 hrs; assay type: functional, cell-based; conditions: KARPAS-299, 48 h
# [13] = target: T2, Histone deacetylase 8 (Homo sapiens, UniProt Q9BY41)
# T2 sequence (Q9BY41 whole entry): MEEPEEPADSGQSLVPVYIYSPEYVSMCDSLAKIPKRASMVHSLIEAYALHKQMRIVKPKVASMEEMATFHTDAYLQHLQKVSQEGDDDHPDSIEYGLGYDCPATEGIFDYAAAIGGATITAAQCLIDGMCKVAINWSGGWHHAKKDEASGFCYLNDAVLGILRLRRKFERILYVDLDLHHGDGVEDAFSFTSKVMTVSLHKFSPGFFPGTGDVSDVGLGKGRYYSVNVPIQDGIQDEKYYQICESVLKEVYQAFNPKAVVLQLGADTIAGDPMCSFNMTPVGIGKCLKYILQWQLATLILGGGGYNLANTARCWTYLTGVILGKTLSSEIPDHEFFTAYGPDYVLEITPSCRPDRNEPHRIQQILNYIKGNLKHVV
# [14] = test system: OCI-AML2; experiment: Antiproliferative activity against human OCI-AML2 cells incubated for 48 hrs; assay type: functional, cell-based; conditions: OCI-AML2, 48 h
# [15] = test system: MV4-11; experiment: Antiproliferative activity against human MV4-11 cells incubated for 48 hrs; assay type: functional, cell-based; conditions: MV4-11, 48 h
# [16] = target: Histone deacetylase 2 (Homo sapiens, UniProt Q92769)
# [17] = target: Histone deacetylase 5 (Homo sapiens, UniProt Q9UQL6); conditions: read-out: IC50
# [18] = target: Histone deacetylase 1 (Homo sapiens, UniProt Q13547)
# [19] = test system: OCI-AML-3; experiment: Antiproliferative activity against human OCI-AML-3 cells incubated for 48 hrs; assay type: functional, cell-based; conditions: OCI-AML-3, 48 h
# [20] = test system: U-937; experiment: Antiproliferative activity against human U-937 cells incubated for 48 hrs; assay type: functional, cell-based; conditions: U-937, 48 h
# [21] = target: T3, Polyamine deacetylase HDAC10 (Homo sapiens, UniProt Q969S8)
# T3 sequence (Q969S8 whole entry): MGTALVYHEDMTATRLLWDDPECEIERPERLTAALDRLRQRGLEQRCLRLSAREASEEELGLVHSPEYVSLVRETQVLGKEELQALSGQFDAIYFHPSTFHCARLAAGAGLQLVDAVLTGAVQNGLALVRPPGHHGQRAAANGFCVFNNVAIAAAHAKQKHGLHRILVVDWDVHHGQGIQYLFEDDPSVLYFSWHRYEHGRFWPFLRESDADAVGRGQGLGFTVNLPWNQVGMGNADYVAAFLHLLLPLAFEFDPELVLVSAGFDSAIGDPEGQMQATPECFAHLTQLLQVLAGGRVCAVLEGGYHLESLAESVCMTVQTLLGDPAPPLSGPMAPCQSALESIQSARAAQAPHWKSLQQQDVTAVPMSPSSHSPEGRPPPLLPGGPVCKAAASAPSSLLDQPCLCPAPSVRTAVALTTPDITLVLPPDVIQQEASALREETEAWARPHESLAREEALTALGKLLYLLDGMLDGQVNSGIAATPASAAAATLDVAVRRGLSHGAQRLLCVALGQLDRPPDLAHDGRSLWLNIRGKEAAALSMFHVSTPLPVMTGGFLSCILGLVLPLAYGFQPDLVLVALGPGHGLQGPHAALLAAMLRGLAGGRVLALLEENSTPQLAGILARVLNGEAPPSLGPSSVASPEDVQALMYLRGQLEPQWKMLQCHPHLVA
# [22] = Antiproliferative activity against human IMS-M2 cells incubated for 48 hrs; assay type: functional, cell-based; conditions: IMS-M2, 48 h
# [23] = test system: Kasumi 1; experiment: Antiproliferative activity against human Kasumi 1 cells incubated for 48 hrs; assay type: functional, cell-based; conditions: Kasumi 1, 48 h
# [24] = test system: HL-60; experiment: Antiproliferative activity against human HL-60 cells incubated for 48 hrs; assay type: functional, cell-based; conditions: HL-60, 48 h
# [25] = target: T4, Histone deacetylase 7 (Homo sapiens, UniProt Q8WUI4)
# T4 sequence (Q8WUI4 whole entry): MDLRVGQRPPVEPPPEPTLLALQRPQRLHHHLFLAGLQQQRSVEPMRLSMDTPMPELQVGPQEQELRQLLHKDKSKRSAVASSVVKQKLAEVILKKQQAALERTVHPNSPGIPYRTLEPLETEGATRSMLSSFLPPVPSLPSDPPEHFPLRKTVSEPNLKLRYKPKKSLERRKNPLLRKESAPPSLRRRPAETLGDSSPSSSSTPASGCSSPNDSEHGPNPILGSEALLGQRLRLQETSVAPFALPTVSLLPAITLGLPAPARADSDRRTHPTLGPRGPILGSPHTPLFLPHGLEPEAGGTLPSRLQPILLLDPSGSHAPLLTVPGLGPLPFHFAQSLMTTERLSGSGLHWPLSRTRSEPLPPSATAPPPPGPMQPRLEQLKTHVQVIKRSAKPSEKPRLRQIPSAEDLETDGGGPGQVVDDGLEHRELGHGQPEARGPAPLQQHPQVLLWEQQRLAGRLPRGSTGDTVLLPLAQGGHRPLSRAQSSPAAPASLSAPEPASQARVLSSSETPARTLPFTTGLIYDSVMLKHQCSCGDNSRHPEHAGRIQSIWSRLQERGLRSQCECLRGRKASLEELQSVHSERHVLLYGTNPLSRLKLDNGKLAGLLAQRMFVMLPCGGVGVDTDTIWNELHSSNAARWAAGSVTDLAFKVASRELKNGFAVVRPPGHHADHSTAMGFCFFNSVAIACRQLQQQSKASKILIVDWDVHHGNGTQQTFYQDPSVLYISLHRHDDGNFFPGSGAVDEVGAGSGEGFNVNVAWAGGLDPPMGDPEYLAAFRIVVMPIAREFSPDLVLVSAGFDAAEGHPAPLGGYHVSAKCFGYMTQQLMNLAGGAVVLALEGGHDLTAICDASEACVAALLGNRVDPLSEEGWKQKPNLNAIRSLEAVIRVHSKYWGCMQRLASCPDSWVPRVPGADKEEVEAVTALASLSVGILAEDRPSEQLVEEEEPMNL
# [26] = test system: NB-4; experiment: Antiproliferative activity against human NB4 cells incubated for 48 hrs; assay type: functional, cell-based; conditions: NB-4, 48 h
# [27] = target: T5, Histone deacetylase 11 (Homo sapiens, UniProt Q96DB2)
# T5 sequence (Q96DB2 whole entry): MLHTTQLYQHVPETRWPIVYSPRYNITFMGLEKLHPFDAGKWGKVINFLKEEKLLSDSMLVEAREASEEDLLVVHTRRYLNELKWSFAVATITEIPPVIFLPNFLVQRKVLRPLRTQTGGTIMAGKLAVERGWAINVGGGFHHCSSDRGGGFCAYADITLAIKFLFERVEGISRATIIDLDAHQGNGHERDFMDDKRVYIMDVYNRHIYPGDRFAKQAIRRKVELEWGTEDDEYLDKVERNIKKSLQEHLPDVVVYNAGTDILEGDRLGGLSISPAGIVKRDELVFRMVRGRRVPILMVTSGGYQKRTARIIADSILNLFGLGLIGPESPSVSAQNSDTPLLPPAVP
# [28] = target: Histone deacetylase 9 (Homo sapiens, UniProt Q9UKV0)
# [29] = target: Histone deacetylase 3 (Homo sapiens, UniProt O15379)
# Chain of Histone deacetylase 3 (O15379 whole entry): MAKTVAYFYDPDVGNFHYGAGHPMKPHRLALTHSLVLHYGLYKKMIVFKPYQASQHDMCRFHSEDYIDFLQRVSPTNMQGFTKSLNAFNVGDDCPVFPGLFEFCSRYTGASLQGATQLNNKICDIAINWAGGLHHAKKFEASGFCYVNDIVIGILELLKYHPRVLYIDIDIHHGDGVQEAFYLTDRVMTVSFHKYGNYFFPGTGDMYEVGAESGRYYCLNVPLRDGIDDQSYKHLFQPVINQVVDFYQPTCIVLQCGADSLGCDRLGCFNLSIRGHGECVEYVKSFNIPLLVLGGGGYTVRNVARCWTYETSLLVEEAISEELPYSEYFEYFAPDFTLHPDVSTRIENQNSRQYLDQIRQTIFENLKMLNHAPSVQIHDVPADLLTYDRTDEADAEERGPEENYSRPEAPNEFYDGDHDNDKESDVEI
# Chain of Histone deacetylase 5 (Q9UQL6 whole entry): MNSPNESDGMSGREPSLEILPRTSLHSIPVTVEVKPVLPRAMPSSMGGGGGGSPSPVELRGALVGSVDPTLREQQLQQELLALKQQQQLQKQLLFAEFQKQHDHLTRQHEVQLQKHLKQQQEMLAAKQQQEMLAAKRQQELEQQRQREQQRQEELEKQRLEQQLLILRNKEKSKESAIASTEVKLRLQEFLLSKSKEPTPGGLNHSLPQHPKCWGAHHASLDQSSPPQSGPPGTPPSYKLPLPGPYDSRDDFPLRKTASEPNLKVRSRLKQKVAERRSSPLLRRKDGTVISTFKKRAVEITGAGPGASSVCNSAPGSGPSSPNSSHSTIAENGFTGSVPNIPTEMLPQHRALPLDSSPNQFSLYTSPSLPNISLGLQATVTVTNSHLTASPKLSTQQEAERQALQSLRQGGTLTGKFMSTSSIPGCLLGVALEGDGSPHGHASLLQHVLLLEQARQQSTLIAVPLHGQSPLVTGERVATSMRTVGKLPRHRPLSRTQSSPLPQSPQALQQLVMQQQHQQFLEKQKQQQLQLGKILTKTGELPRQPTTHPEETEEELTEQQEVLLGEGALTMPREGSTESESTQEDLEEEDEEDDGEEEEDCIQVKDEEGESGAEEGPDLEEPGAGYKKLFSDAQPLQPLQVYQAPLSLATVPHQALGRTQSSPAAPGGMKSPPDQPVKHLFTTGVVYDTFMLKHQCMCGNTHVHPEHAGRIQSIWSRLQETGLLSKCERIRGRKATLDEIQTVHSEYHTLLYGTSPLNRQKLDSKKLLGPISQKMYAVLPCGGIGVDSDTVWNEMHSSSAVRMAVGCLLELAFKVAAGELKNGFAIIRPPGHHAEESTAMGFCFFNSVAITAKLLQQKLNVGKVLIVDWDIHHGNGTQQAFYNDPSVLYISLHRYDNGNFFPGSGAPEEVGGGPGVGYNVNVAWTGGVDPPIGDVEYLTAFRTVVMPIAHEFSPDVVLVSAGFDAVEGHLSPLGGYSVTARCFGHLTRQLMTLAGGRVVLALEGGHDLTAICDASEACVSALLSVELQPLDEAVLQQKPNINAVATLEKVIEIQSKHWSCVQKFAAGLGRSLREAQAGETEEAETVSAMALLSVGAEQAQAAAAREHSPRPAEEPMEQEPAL
# Chain of Histone deacetylase 2 (Q92769 whole entry): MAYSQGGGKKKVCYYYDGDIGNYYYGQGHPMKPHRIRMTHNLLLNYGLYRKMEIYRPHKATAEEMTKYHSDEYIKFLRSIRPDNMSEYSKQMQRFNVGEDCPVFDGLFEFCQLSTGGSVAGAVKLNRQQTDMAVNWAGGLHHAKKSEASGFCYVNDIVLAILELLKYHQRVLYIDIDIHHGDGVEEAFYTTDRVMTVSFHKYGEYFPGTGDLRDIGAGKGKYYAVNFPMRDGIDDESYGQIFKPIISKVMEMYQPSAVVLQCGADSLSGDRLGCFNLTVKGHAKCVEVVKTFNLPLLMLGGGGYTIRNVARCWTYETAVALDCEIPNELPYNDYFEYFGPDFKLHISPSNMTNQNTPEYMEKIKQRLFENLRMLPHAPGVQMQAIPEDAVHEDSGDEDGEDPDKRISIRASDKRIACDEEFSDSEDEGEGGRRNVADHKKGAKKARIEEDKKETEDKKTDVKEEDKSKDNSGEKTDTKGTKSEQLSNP
# Chain of Histone deacetylase 1 (Q13547 whole entry): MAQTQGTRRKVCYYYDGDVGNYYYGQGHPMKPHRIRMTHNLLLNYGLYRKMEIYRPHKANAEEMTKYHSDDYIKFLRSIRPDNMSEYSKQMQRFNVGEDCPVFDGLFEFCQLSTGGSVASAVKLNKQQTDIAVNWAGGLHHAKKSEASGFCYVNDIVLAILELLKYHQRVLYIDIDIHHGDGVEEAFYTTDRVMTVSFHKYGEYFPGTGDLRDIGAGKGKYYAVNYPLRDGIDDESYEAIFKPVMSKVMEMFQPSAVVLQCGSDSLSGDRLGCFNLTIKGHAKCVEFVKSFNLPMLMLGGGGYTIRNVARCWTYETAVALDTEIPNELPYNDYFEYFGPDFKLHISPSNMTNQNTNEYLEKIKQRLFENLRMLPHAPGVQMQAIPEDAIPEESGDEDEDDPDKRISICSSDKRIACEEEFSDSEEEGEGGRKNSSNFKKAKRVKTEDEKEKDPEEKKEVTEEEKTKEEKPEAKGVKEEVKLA
# Chain of Histone deacetylase 9 (Q9UKV0 whole entry): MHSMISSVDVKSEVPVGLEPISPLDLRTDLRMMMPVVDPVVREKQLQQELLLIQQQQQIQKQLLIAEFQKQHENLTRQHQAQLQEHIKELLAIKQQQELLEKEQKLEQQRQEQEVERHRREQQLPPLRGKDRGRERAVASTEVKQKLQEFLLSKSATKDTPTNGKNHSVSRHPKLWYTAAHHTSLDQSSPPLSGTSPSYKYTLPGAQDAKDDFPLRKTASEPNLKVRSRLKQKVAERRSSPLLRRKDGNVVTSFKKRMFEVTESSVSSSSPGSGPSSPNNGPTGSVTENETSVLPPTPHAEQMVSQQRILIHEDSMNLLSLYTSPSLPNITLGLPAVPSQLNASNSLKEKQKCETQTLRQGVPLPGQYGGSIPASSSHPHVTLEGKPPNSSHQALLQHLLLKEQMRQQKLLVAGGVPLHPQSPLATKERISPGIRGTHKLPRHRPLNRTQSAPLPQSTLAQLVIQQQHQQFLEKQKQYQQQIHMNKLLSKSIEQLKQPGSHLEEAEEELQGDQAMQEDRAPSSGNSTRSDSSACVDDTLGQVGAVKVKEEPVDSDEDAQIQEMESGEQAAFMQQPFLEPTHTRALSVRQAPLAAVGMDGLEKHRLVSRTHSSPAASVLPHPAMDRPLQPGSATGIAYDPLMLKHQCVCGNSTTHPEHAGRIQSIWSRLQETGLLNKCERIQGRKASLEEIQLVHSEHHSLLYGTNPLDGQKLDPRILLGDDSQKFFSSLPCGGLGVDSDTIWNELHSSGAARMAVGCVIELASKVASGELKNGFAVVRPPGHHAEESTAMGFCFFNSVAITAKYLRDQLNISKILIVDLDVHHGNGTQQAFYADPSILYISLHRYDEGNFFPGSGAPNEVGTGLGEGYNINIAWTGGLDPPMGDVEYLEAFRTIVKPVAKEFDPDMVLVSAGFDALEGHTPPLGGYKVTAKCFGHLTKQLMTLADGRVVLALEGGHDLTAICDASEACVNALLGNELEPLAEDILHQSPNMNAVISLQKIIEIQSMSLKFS
structure (smiles),measurement,setting,value
O=C(/C=C/c1ccc(NC(=O)C(Cc2ccccc2)c2ccccc2)cn1)NO (stereo unspecified),Ratio IC50,[1],10
same,Activity,[2],40%
same,IC50,[3],70 nM
same,IC50,[4],40 nM
same,Activity,[5],76%
same,Activity,[6],40%
same,Activity,[7],70%
same,IC50,[8],220 nM
same,Activity,[9],60%
same,Activity,[10],10%
same,IC50,[11],11 nM
O=C(/C=C/c1ccc(NC(=O)Cc2cccc3ccccc23)cn1)NO,IC50,[12],400 nM
same,IC50,[13],47 nM
same,Ratio IC50,[1],10
same,IC50,[14],379 nM
same,Activity,[2],40%
same,IC50,[3],70 nM
same,IC50,[4],50 nM
same,IC50,[15],59 nM
same,IC50,[16],156 nM
same,IC50,[17],1350 nM
same,IC50,[18],98 nM
same,Activity,[7],70%
same,IC50,[19],529 nM
same,IC50,[20],258 nM
same,IC50,[21],71 nM
same,IC50,[8],320 nM
same,IC50,[22],198 nM
same,IC50,[23],66 nM
same,IC50,[24],276 nM
same,IC50,[25],2060 nM
same,IC50,[26],84 nM
same,IC50,[27],3980 nM
same,Activity,[10],10%
same,IC50,[28],2790 nM
same,IC50,[29],39 nM
